SMILES strings stand for the structures.

In general, IC50 refers to the concentration at which inhibition is half-maximal.

The test system of one experiment is SK-MEL-3 cells. In words: SK-MEL-3 cell proliferation assay. Type of experiment: cell-based. The following applies: Homo sapiens, SK-MEL3, 72 h, read-out: SK-MEL-3 IC50.
For the compound `N#Cc1ccc(N2CCc3nc4[nH]c(=O)[nH]c4cc3C2)cc1F` [Example 53, 7-(3-fluoro-4-cyanophenyl)-1,3,5,6,7,8-hexahydro-2H-imidazo[4,5-b][1,6]naphthyridin-2-one], the concentration for half-maximal inhibition (IC50) worked out at 9.6 nM.

The experiment is the same for the next values; noted with them: Homo sapiens, SK-MEL3; SK-MEL-3 cells, 72 hours, CellTiter-Glo; read-out: SK-MEL-3 IC50.
As for `Cc1ccc(-c2ccc3nc4[nH]c(=O)[nH]c4cc3c2Cl)cc1` [Example 1, 8-chloro-7-(p-tolyl)-1,3-dihydro-2H-imidazo[4,5-b]quinolin-2-one], the concentration for half-maximal inhibition (IC50) was 0.4 nM.
`Cc1ccc(-c2ccc3nc4c(cc3c2Cl)CC(=O)N4)cc1` [Example 2, 5-chloro-6-(p-tolyl)-1,3-dihydropyrrolo[2,3-b]quinolin-2-one]: the IC50 came out at 37.9 nM.
As to `Cc1cc(F)ccc1-c1ccc2nc3[nH]c(=O)[nH]c3cc2c1` [Example 4, 7-(4-fluoro-2-methylphenyl)-1,3-dihydro-2H-imidazo[4,5-b]quinolin-2-one], the IC50 was found to be 1.7 nM.
Same read-out and setting: for `O=c1[nH]c2cc3cc(-c4ccc(F)cc4C(F)(F)F)ccc3nc2[nH]1` [Example 5, 7-(4-fluoro-2-(trifluoromethylphenyl))-1,3-dihydro-2H-imidazo[4,5-b]quinolin-2-one] the value was 2.8 nM.
Take `COc1cc(F)ccc1-c1ccc2nc3[nH]c(=O)[nH]c3cc2c1` [Example 6, 7-(4-fluoro-2-methoxyphenyl)-1,3-dihydro-2H-imidazo[4,5-b]quinolin-2-one]: the 50% inhibitory concentration (IC50) was 3.6 nM.
As to `COc1ccc(-c2ccc3nc4[nH]c(=O)[nH]c4cc3c2)c(Cl)n1` [Example 7, 7-(2-chloro-6-methoxypyridin-3-yl)-1,3-dihydro-2H-imidazo[4,5-b]quinolin-2-one], the 50% inhibitory concentration (IC50) is 0.4 nM.
Turning to `COc1cc(Cl)c(-c2ccc3nc4[nH]c(=O)[nH]c4cc3c2)cn1` [Example 8, 7-(4-chloro-6-methoxypyridin-3-yl)-1,3-dihydro-2H-imidazo[4,5-b]quinolin-2-one], the concentration for half-maximal inhibition (IC50) is 2.1 nM.
Take `O=c1[nH]c2cc3cc(-c4ccc(F)cc4)ccc3nc2[nH]1` [Example 9, 7-(4-fluorophenyl)-1,3-dihydro-2H-imidazo[4,5-b]quinolin-2-one]: the IC50 came to 1.7 nM.
`O=c1[nH]c2cc3cc(-c4ncc(F)cc4Cl)ccc3nc2[nH]1` [Example 10, 7-(3-chloro-5-fluoropyridin-2-yl)-1,3-dihydro-2H-imidazo[4,5-b]quinolin-2-one]: the IC50 came out at 1.8 nM.
The same measure, in the same setting: the value for `O=c1[nH]c2cc3cc(-c4cnn(C(F)F)c4)ccc3nc2[nH]1` [Example 11, 7-(1-(difluoromethyl)-1H-pyrazol-4-yl)-1,3-dihydro-2H-imidazo[4,5-b]quinolin-2-one] was 0.8 nM; that for `O=c1[nH]c2cc3cc(-c4cn(C(F)F)nc4Cl)ccc3nc2[nH]1` [Example 12, 7-(3-chloro-1-(difluoromethyl)-1H-pyrazol-4-yl)-1,3-dihydro-2H-imidazo[4,5-b]quinolin-2-one] was 0.3 nM; that for `O=c1[nH]c2cc3cc(-c4c(Cl)cnn4C(F)F)ccc3nc2[nH]1` [Example 16, 7-(4-chloro-1-(difluoromethyl)-1H-pyrazol-5-yl)-1,3-dihydro-2H-imidazo[4,5-b]quinolin-2-one] was 1.6 nM.
On to `O=c1[nH]c2cc3cc(-c4ccc(Cl)nc4Cl)ccc3nc2[nH]1` [Example 18, 7-(2,6-dichloropyridin-3-yl)-1,3-dihydro-2H-imidazo[4,5-b]quinolin-2-one], for which the IC50 worked out at 0.6 nM.
Turning to `Nc1ccc(-c2ccc3nc4[nH]c(=O)[nH]c4cc3c2)c(Cl)n1` [Example 19, 7-(6-amino-2-chloropyridin-3-yl)-1,3-dihydro-2H-imidazo[4,5-b]quinolin-2-one], the IC50 is 1.7 nM.
The same measure, in the same setting: the value for `O=c1[nH]c2cc3c(nc2[nH]1)CCN(c1ccccc1)C3` [Example 20, 7-phenyl-1,3,5,6,7,8-hexahydro-2H-imidazo[4,5-b][1,6]naphthyridin-2-one] was 4.5 nM; that for `Cc1ccc(-c2ccc3nc4[nH]c(=O)[nH]c4cc3c2)c(Cl)c1` [Example 25, 7-(2-chloro-4-methylophenyl)-1,3-dihydro-2H-imidazo[4,5-b]quinolin-2-one] was 2.9 nM; that for `Nc1cc(-c2ccc3nc4[nH]c(=O)[nH]c4cc3c2)ccn1` [Example 26, 7-(2-aminopyridin-4-yl)-1,3-dihydro-2H-imidazo[4,5-b]quinolin-2-one] was 74.6 nM.
For `O=c1[nH]c2cc3cc(-c4cnn(C(F)(F)F)c4)ccc3nc2[nH]1` [Example 29, 7-(1-(trifluoromethyl)-1H-pyrazol-4-yl)-1,3-dihydro-2H-imidazo[4,5-b]quinolin-2-one], the IC50 stood at 6.6 nM.
The same measure, in the same setting: the value for `O=c1[nH]c2cc3cc(-c4cn(C(F)F)nc4C(F)(F)F)ccc3nc2[nH]1` [Example 31, 7-(1-(difluoromethyl)-3-(trifluoromethyl)-1H-pyrazol-4-yl)-1,3-dihydro-2H-imidazo[4,5-b]quinolin-2-one] was 2.5 nM; that for `O=c1[nH]c2cc3cc(-c4c(Cl)ncn4C(F)F)ccc3nc2[nH]1` [Example 38, 7-(4-chloro-1-(difluoromethyl)-1H-imidazol-5-yl)-1,3-dihydro-2H-imidazo[4,5-b]quinolin-2-one] was 4.7 nM; that for `O=c1[nH]c2cc3c(nc2[nH]1)CCN(c1ccc(C(F)F)cc1Cl)C3` [Example 46, 7-(2-chloro-4-(difluoromethyl)phenyl)-1,3,5,6,7,8-hexahydro-2H-imidazo[4,5-b][1,6]naphthyridin-2-one] was 1.2 nM.
Turning to `O=c1[nH]c2cc3c(nc2[nH]1)CCN(c1ccc(Cl)cc1Cl)C3` [Example 47, 7-(2,4-dichlorophenyl)-1,3,5,6,7,8-hexahydro-2H-imidazo[4,5-b][1,6]naphthyridin-2-one], the half-inhibitory concentration (IC50) is 2.7 nM.
For the compound `O=c1[nH]c2cc3c(nc2[nH]1)CCN(c1cccc(F)c1)C3` [Example 49, 7-(3-fluorophenyl)-1,3,5,6,7,8-hexahydro-2H-imidazo[4,5-b][1,6]naphthyridin-2-one], the half-maximal inhibitory concentration (IC50) was found to be 1.8 nM.
For `O=c1[nH]c2cc3c(nc2[nH]1)CCN(c1cn(C(F)F)nc1Cl)C3` [Example 51, 7-(3-chloro-1-(difluoromethyl)-1H-pyrazol-4-yl)-1,3,5,6,7,8-hexahydro-2H-imidazo[4,5-b][1,6]naphthyridin-2-one], the IC50 was 74.9 nM.
On to `N#Cc1ccc(N2CCc3nc4[nH]c(=O)[nH]c4cc3C2)c(F)c1` [Example 52, 7-(2-fluoro-4-cyanophenyl)-1,3,5,6,7,8-hexahydro-2H-imidazo[4,5-b][1,6]naphthyridin-2-one], for which the IC50 stood at 4.1 nM.
Same read-out and setting: the value for `O=c1[nH]c2cc3c(nc2[nH]1)CCN(c1ccc(OC(F)(F)F)cc1Cl)C3` [Example 54, 7-(2-chloro-4-(trifluoromethoxy)phenyl)-1,3,5,6,7,8-hexahydro-2H-imidazo[4,5-b][1,6]naphthyridin-2-one] was 198 nM; that for `O=c1[nH]c2cc3c(nc2[nH]1)CCN(c1cccc(OC(F)(F)F)c1)C3` [Example 55, 7-(3-(trifluoromethoxy)phenyl)-1,3,5,6,7,8-hexahydro-2H-imidazo[4,5-b][1,6]naphthyridin-2-one] was 15.6 nM; that for `N#Cc1cnc(N2CCc3nc4[nH]c(=O)[nH]c4cc3C2)c(Cl)c1` [Example 56, 7-(3-chloro-5-cyanopyridin-2-yl)-1,3,5,6,7,8-hexahydro-2H-imidazo[4,5-b][1,6]naphthyridin-2-one] was 10.6 nM.
With `O=c1[nH]c2cc3c(nc2[nH]1)CCN(c1cccc(Cl)c1)C3` [Example 59, 7-(3-chlorophenyl)-1,3,5,6,7,8-hexahydro-2H-imidazo[4,5-b][1,6]naphthyridin-2-one], the half-maximal inhibitory concentration (IC50) was found to be 2.3 nM.
Take `O=c1[nH]c2cc3c(Cl)c(-c4ccccc4)ccc3nc2[nH]1` [Example 65, 8-chloro-7-phenyl-1,3-dihydro-2H-imidazo[4,5-b]quinolin-2-one]: the IC50 came to 0.8 nM.
As for `O=c1[nH]c2cc3c(Cl)c(-c4ccc(F)cc4)ccc3nc2[nH]1` [Example 66, 8-chloro-7-(4-fluorophenyl)-1,3-dihydro-2H-imidazo[4,5-b]quinolin-2-one], the half-inhibitory concentration (IC50) came to 0.9 nM.
`O=c1[nH]c2cc3c(Cl)c(-c4ccc(C(F)F)cc4)ccc3nc2[nH]1` [Example 67, 8-chloro-7-(4-(difluoromethyl)phenyl)-1,3-dihydro-2H-imidazo[4,5-b]quinolin-2-one]: the 50% inhibitory concentration (IC50) worked out at 0.4 nM.
The same measure, in the same setting: for `Cc1ccc(-c2ccc3nc4[nH]c(=O)[nH]c4cc3c2F)cc1` [Example 68, 8-fluoro-7-(p-tolyl)-1,3-dihydro-2H-imidazo[4,5-b]quinolin-2-one] the value was 2 nM; for `Cc1ccc(-c2cc3cc4[nH]c(=O)[nH]c4nc3cc2Cl)cc1` [Example 69, 6-chloro-7-(p-tolyl)-1,3-dihydro-2H-imidazo[4,5-b]quinolin-2-one], 9.7 nM.
Turning to `Cc1ccc(-c2ccc3nc4[nH]c(=O)[nH]c4cc3c2Cl)nc1` [Example 70, 8-chloro-7-(5-methylpyridin-2-yl)-1,3-dihydro-2H-imidazo[4,5-b]quinolin-2-one], the half-maximal inhibitory concentration (IC50) is 2.9 nM.
As to `O=c1[nH]c2cc3c(Cl)c(-c4ncc(F)cn4)ccc3nc2[nH]1` [Example 71, 8-chloro-7-(5-fluoropyrimidin-2-yl)-1,3-dihydro-2H-imidazo[4,5-b]quinolin-2-one], the IC50 was found to be 8.2 nM.
For the compound `COc1ccc(-c2ccc3nc4[nH]c(=O)[nH]c4cc3c2Cl)cn1` [Example 72, 8-chloro-7-(6-methoxypyridin-3-yl)-1,3-dihydro-2H-imidazo[4,5-b]quinolin-2-one], the IC50 is 1 nM.
For the compound `O=c1[nH]c2cc3c(Cl)c(-c4ccc(Cl)nn4)ccc3nc2[nH]1` [Example 73, 8-chloro-7-(6-chloropyridazin-3-yl)-1,3-dihydro-2H-imidazo[4,5-b]quinolin-2-one], the IC50 was 1.6 nM.
Turning to `O=c1[nH]c2cc3c(Cl)c(-c4ccc(C(F)F)cn4)ccc3nc2[nH]1` [Example 74, 8-chloro-7-(5-(difluoromethyl)pyridin-2-yl)-1,3-dihydro-2H-imidazo[4,5-b]quinolin-2-one], the IC50 was 0.7 nM.
Still for that read-out and setting: the value for `N#Cc1ccc(-c2ccc3nc4[nH]c(=O)[nH]c4cc3c2Cl)cc1` [Example 75, 8-chloro-7-(4-cyanophenyl)-1,3-dihydro-2H-imidazo[4,5-b]quinolin-2-one] was 0.5 nM.

The record behind these values is patent publication US20260265251A1 (priority 2023, published 2026).
